Test system: MDA-231 cancer cells
Test: Inhibition of proliferation assay: cell confluence (IncuCyte imaging)
Type: cell-based
Conditions: compound at 10 uM; MDA-231 cells; IncuCyte images every 3 h over 4-5 d; relative confluence normalised to time zero
In short: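 MDA-231 cancer cells from ATCC were grown in DMEM with 10% FBS, 2 mM Glutamax, 1 mM NEAA and 1 mM sodium pyruvate. An IncuCyte Live Cell Imaging microscope with a 10× objective imaged one field per well every 3 h for 4-5 d. Its built-in algorithm computed percent confluence as a proliferation surrogate, and values were normalised to each sample's time-zero value.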

CC[C@H]1OC(=O)[C@H](C)[C@@H](O[C@H]2C[C@@](C)(OC)[C@@H](O)[C@H](C)O2)[C@H](C)[C@@H](O[C@@H]2O[C@H](C)C[C@H](N(C)C)[C@H]2O)[C@](C)(O)C[C@@H](C)CN(C(=O)CCCCCCCCCCC[P+](c2ccccc2)(c2ccccc2)c2cnn(C)c2)[C@H](C)[C@@H](O)[C@]1(C)O.[Cl-] [Example 28, {12-[(2R,3S,4R,5R,8R,10R,11R,12S,13S,14R)-11-{[(2S,3R,4S,6R)-4-(dimethylamino)-3-hydroxy-6-methyloxan-2-yl]oxy}-2-ethyl-3,4,10-trihydroxy-13-{[(2R,4R,5S,6S)-5-hydroxy-4-methoxy-4,6-dimethyloxan-2-yl]oxy}-3,5,8,10,12,14-hexamethyl-15-oxo-1-oxa-6-azacyclopentadecan-6-yl]-12-oxododecyl}(1-methyl-1H-pyrazol-4-yl)diphenylphosphonium chloride]
% Confluence: 16%

— US11427606B2, “Azithromycin derivatives containing a phosphonium ion as anticancer agents” (Rising Tide Foundation, priority 2017, dated 2022)
